# Experimental data from US12365651B2, “Use of pirfenidone and derivatives for modulation of B lymphocyte activity and organ protection from acute tissue damage” (Washington University, priority 2017, dated 2025).
# Columns and labels:
# [1] = tested on: PDICs obtained from thioglycolate-stimulated TIRAP−/− mice; assay: CD86 on CD19+ cells in cultured PDICs from TIRAP−/− mice; assay type: cell-based, mouse; conditions: LPS stimulated cultures
# Description: Noting that prior studies have shown that B cells are activated by engagement of TLR by damage-associated molecular patterns (DAMPs) released by necrotic cells (17), and noting that TLR signaling was present in CD19+CD11b− lymphocytes sorted from DT injured animals but absent in the same cells sorted from DT injured animals treated with Pirfenidone, we focused our in vitro studies on CD19+ cells using lipolysaccharide (a classic TLR4 agonist and a T-independent antigen), as well as necrotic cardiac cell extracts, which we and others have shown signal through TLR4 (18). […] To further explore the role of TLR mediated signaling, we repeated these experiments in PDICs obtained from thioglycolate-stimulated TIRAP−/− mice. […] Importantly, both mechanisms were sensitive to treatment with Pirfenidone (FIG. 10E and FIG. 10F).
# Peritoneal derived inflammatory cells (PDICs) were harvested from the peritoneal cavity of thioglycolate-stimulated wild-type and TIRAP−/− deficient mice. PDIC cultures contain an admixture of inflammatory cells, including CD19+ B cells (40). TIRAP deficient mice were a gift from Dr. Ruslan Medzhitov (Yale University, New Haven, CT). PDICs were harvested on day 4 after i.p. injection of 1 ml of thioglycolate medium (Millipore, Billerica, MA, USA). […]
# [2] = tested on: Peritoneal derived inflammatory cells; assay: In vitro immunomodulatory effect of tested PEG compounds (CD86 on CD19+ cells, LPS); assay type: cell-based, mouse; conditions: LPS 100 ng/ml, 24 h, various concentrations
# Method: Peritoneal derived inflammatory cells were collected on day for post intraperitoneal injection of Thyoglicollate. Cells were cultured for 24 h in baseline condition (control), in the presence of LPS 100 ng/ml (LPS) or in the presence of LPS 100 ng/ml and various concentrations of different forms of Pegylated Pirfenidone (named C2 and C3 in FIG. 11A and C4 to C6 in FIG. 11B)). After the 24 h in culture cells were collected and analyzed via flow cytometry to assess the expression of CD86 on CD19+ cells (B lymphocytes). […] FIG. 11C reports the molecular weights of the tested forms of PEGylated Pirfenidone and the molecular weight (MW) ration between the tested compound and Pirfenidone).
smiles,measurement,setting,value
"Cc1ccc(=O)n(-c2ccccc2)c1 [Pirfenidone, 5 methyl-1-phenyl-2-[H] pyridone]",CD19+ CD86high lymphocytes,[1],small but significant (p<0.001) decrease
same,expression of CD86 on CD19+ cells,[2],reduced
